Results: the NIST ThermoML archive (doi:10.1016/j.tca.2017.09.023)
Values joined by “and” are separate entries in the source; they are usually repeats but may differ in a detail not shown here. Identical values can stand only once. ± gives the expanded uncertainty stated by the source.

Assays:
[1] = for Normal melting temperature: DTA; for Triple point temperature: DSC
[2] = Molar enthalpy of transition or fusion; settings: DSC

SMILES | Normal melting temperature ([1]; Crystal) | Molar enthalpy of transition or fusion ([2]; Crystal) [kcal/mol] | Normal melting temperature ([1]; Crystal 1) | Triple point temperature ([1]; Crystal 2) [K] | Molar enthalpy of transition or fusion ([2]; Crystal 2) [kcal/mol] | Triple point temperature ([1]; Crystal 3) [K] | Molar enthalpy of transition or fusion ([2]; Crystal 3) [kcal/mol]
c1ccc(-c2ccccc2-c2ccccc2)cc1 [o-terphenyl] | 57.2 ± 2 °C |  |  |  |  |  | 
Nc1c(Cl)c(Cl)c(Cl)c(Cl)c1Cl [pentachlorobenzenamine] | 235.4 ± 1.1 °C | 4.42 ± 0.311 |  |  |  |  | 
Cc1c(C)c(C)c(Br)c(C)c1C [bromopentamethylbenzene] |  | 3.61 ± 0.359 | 163.0 ± 1.1 °C | 411.6 ± 1.2 | 1.03 ± 0.335 |  | 
Cc1c(C)c(C)c(C)c(C)c1C [hexamethylbenzene] |  | 4.91 ± 0.359 | 166.1 ± 1.1 °C and 167.5 ± 2 °C | 384.9 ± 1.2 | 0.399 ± 0.335 | 117.4 ± 1.2 | 0.136 ± 0.335
Clc1c(Cl)c(Cl)c(Cl)c(Cl)c1Cl [hexachlorobenzene] | 230.1 ± 2 °C and 231 ± 1.1 °C | 5.72 ± 0.311 |  |  |  |  | 
